Assay results taken from the OPERA property sets (Mansouri et al. 2018).

logP | Structure (SMILES)
2.56 | O=C1CC(Oc2ccc(C(=O)C=Cc3ccccc3)cc2)N1 (stereo not given)
2.61 | O=C1CC(Oc2ccc(-c3ccccc3)cc2)N1 (stereo not given)
3.3 | CCOC(=O)CN1C(=O)CC1Oc1ccc(C(=O)C=Cc2ccccc2)cc1 (stereo not given)
2.62 | O=C1CC(Sc2ccccc2C(=O)OCc2ccccc2)N1 (stereo not given)
3 | CCOC(=O)CN1C(=O)CC1Oc1ccc(C(=O)c2ccccc2)cc1 (stereo not given)
2.14 | O=C1CC(Oc2ccc(C(=O)c3ccccc3)cc2)N1 (stereo not given)
2.66 | O=C1CC(Oc2cccc3ccccc23)N1 (stereo not given)
2.29 | O=C1CC(Oc2ccc3ccccc3c2)N1 (stereo not given)
2.8 | CCOC(=O)CN1C(=O)CC1Oc1ccc2ccccc2c1 (stereo not given)
2.83 | O=C1CC(Oc2cccc(C(=O)OCc3ccccc3)c2)N1 (stereo not given)
3.4 | CCOC(=O)CN1C(=O)CC1Sc1ccc2ccccc2c1 (stereo not given)
3.6 | CC(C)(C)OC(=O)CN1C(=O)CC1Oc1ccc2ccccc2c1 (stereo not given)
1.83 | O=C1CC(Oc2ccccc2C(=O)c2ccccc2)N1 (stereo not given)
2.64 | O=C1CC(Sc2ccc3ccccc3c2)N1 (stereo not given)
2.31 | O=C1CC(Sc2ccc(Cl)cc2)N1 (stereo not given)
